In patent US20240408099A1, “COMBINATION […] OF KRAS G12D INHIBITORS WITH Pan ErbB FAMILY INHIBITORS” (MIRATI THERAPEUTICS, INC., priority 2021, published 2024):

Assays:
Format in all cases: in vivo, nude/nude mice
AsPC-1 cells = assay: AsPC-1 TGI-42 pancreatic cancer xenograft, tumor volumes; conditions: 12.5 mg/kg QD
Protocol: (§1) Immunocompromised nude/nude mice are inoculated in the right hind flank with cells harboring a KRas G12D mutation. When tumor volumes reach between 200-400 mm^3 in size, the mice are divided into four to five groups of 5 mice each. The first group is administered vehicle only. […] The fourth or last groups are administered the single agent dose of the KRas G12D inhibitor using the twice daily schedule and/or the 2 sequential days followed by 5 days off schedule in combination with the single agent dose of one of the EGFR inhibitors. The treatment period varies from cell line to cell line but typically is between 15-40 days. Tumor volumes are measured using a caliper every two-three days and tumor volumes are calculated by the formula: […].
(§2) 20 to 30 nude/nude mice per study were inoculated in the right hind limb with 5×10^6 LS180 cells, AsPC-1 cells, GP2D cells, Panc 02.03 cells, SW1990 cells, or SNU-1033 cells.
Experimental Procedures. 30 nude/nude mice were inoculated with AsPC-1 cells in the right hind flank. When the tumors reached ˜300 mm^3 six treatment groups were established with five mice per group.

Panc 02.03 = Panc 02.03 TGI-43 pancreatic cancer xenograft (Table 5), tumor volumes; conditions: for Average Tumor Volumes: 12.5 mg/kg QD (once daily)
Protocol: as §1, with “The treatment period varies from cell line to cell line but typically is between 15-40 days.” left out
20 to 30 nude/nude mice per study were inoculated in the right hind limb with 5×10^6 LS180 cells, AsPC-1 cells, GP2D cells, Panc 02.03 cells, SW1990 cells, or SNU-1033 cells. […]

SW1990 cells = assay: SW1990 TGI MDS #200407-807 pancreatic cancer xenograft, tumor volumes; conditions: for Average Tumor Volumes: 12.5 mg/kg QD once daily
Protocol: as §1, with “The treatment period varies from cell line to cell line but typically is between 15-40 days.” left out
as §2
Experimental Procedures. 30 nude/nude mice were inoculated with SW1990 cells in the right hind flank. When the tumors reached ˜300 mm^3 six treatment groups were established with five mice per group.

CN(C)C/C=C/C(=O)Nc1cc2c(Nc3ccc(F)c(Cl)c3)ncnc2cc1OC1CCOC1 (stereo not shown) [Afatinib, (E)-N-(4-((3-chloro-4-fluorophenyl)amino)-7-((tetrahydrofuran-3-yl)oxy)quinazolin-6-yl)-4-(dimethylamino)but-2-enamide, reference compound]
tumor growth inhibition (AsPC-1 cells; single agent, Day 34): 11% | Average Tumor Volumes (AsPC-1 cells; Study Day 1): 328.208 mm^3 | Average Tumor Volumes (AsPC-1 cells; Study Day 6): 463.11 mm^3 | Average Tumor Volumes (AsPC-1 cells; Study Day 9): 641.776 mm^3 | Average Tumor Volumes (AsPC-1 cells; Study Day 13): 720.894 mm^3 | Average Tumor Volumes (AsPC-1 cells; Study Day 16): 768.716 mm^3 | Average Tumor Volumes (AsPC-1 cells; Study Day 20): 964.434 mm^3 | Average Tumor Volumes (AsPC-1 cells; Study Day 23): 1002.602 mm^3 | Average Tumor Volumes (AsPC-1 cells; Study Day 27): 1211.064 mm^3 | Average Tumor Volumes (AsPC-1 cells; Study Day 30): 1289.494 mm^3 | Average Tumor Volumes (AsPC-1 cells; Study Day 34): 1252.045 mm^3 | Average Tumor Volumes (Panc 02.03; Study Day 1): 331.548 mm^3 | Average Tumor Volumes (Panc 02.03; Study Day 4): 361.83 mm^3 | Average Tumor Volumes (Panc 02.03; Study Day 8): 398.444 mm^3 | Average Tumor Volumes (Panc 02.03; Study Day 11): 470.498 mm^3 | Average Tumor Volumes (Panc 02.03; Study Day 15): 660.352 mm^3 | Average Tumor Volumes (Panc 02.03; Study Day 18): 784.04 mm^3 | Average Tumor Volumes (Panc 02.03; Study Day 22): 904.724 mm^3 | tumor growth inhibition (Panc 02.03; 12.5 mg/kg daily, single agent, Day 22): 27% | tumor growth inhibition (SW1990 cells; 12.5 mg/kg QD daily, single agent, Day 23): 20% | Average Tumor Volumes (SW1990 cells; Study Day 2): 455.54 mm^3 | Average Tumor Volumes (SW1990 cells; Study Day 6): 536.86 mm^3 | Average Tumor Volumes (SW1990 cells; Study Day 9): 624.98 mm^3 | Average Tumor Volumes (SW1990 cells; Study Day 13): 698.56 mm^3 | Average Tumor Volumes (SW1990 cells; Study Day 16): 778.74 mm^3 | Average Tumor Volumes (SW1990 cells; Study Day 20): 1141.575 mm^3 | Average Tumor Volumes (SW1990 cells; Study Day 23): 1293.5 mm^3 | Average Tumor Volumes (SW1990 cells; Study Day −1): 363.4 mm^3
